Legend:
[1] = test system: multiple sclerosis patients; assay: case treatments of multiple sclerosis (Examples 2-5); assay type: in vivo, human
Description: A person was diagnosed as having MS after presenting with weakness, loss of balance, double vision, and paraesthesia in their right arm. They were treated with prednisone and later with physiotherapy. […] Tone was increased in both lower limbs and they had bilateral ankle clonus. Deep tendon reflexes were 2+ in the arms, 3+ in both knees and ankles and the planter responses were extensor.
They were started on 10 milligram subcutaneous injections of Peptide T daily. […] Their frequency of nocturia was reduced, fine motor control improved, stuttering decreased, their legs were less spastic and they could stand with minimal support.
A person was diagnosed with optic neuritis secondary to multiple sclerosis after presenting with numbness, impaired motor function, and blurred vision (20/300 bilaterally). Their somatic neurological examination was within normal limits. Minor episodes of numbness and impaired speech, balance and co-ordination had occurred over 6 months, as well as headache and loss of vision.
Peptide T therapy was started.
A person with their first multiple sclerosis episode had optic neuritis and complete blindness in the right eye for 2 weeks, numbness in their right leg and then both legs. Their symptoms worsened. […] They had worsening of their ataxia and blurred vision. They were given prednisone 80 milligrams per day. […] The patient complained of oscillopsia. […] Findings were typical of demyelination consistent with MS. […] The tone was increased in their lower limbs and they had non-sustained ankle clonus bilaterally. Their knee jerk was increased on the right compared to the left. Plantar responses were both upgoing. They had decreased position, vibration, light touch and cold sensation in the feet compared to the hands.
About 2 months later the patient was started on Peptide T 10 milligrams subcutaneously daily. […] They experienced improved feelings in their fingers, fine movements of their hands and improved cognitive function.
A person with a history of dizziness, ataxia, episodes of vertigo, impairment of motor function and generalized weakness of the legs was treated with dilantin and admitted to hospital. […] They were reassessed about 2 years later for episodes of dizziness, and complaints of leg spasms. […] Planter response was downgoing and they had upwards gaze vertical nystagmus as previously noted.

[2] = in vivo; cited from earlier work
[3] = test system: mouse fetal hippocampal neurons; conditions: mouse hippocampal neuronal culture; cited from earlier work
rat spinal cord = conditions: spinal administration; cited from earlier work
protein kinase C = conditions: cited from earlier work

NCC(CC(=O)O)c1ccc(Cl)cc1 (centres unmarked) [Lioresal (Baclofen), Baclofen]
response to earlier treatment ([1]; Example 2, before Peptide T): some improvement

C[C@@H](N)C(=O)N[C@@H](CO)C(=O)N[C@H](C(=O)N[C@H](C(=O)N[C@H](C(=O)N[C@@H](CC(N)=O)C(=O)N[C@@H](Cc1ccc(O)cc1)C(=O)N[C@H](C(N)=O)[C@@H](C)O)[C@@H](C)O)[C@@H](C)O)[C@@H](C)O [Peptide T, D-Ala-Ser-Thr-Thr-Thr-Asn-Tyr-Thr- Amide]
exit from the brain [2]: diffusion only

C[C@]12C=CC(=O)C=C1CC[C@@H]1[C@@H]2C(=O)C[C@@]2(C)[C@H]1CC[C@]2(O)C(=O)CO [prednisone]
symptomatic response ([1]; Example 4, 150 mg daily, while off Peptide T): minimal symptomatic improvement | ataxia and some visual problems ([1]; Example 4, 80 milligrams per day): seemed to improve | response to treatment ([1]; Example 4, first course, dose not stated): some improvement

vasoactive intestinal peptide [VIP]
effect on gp120-induced neurotoxicity [3]: completely eliminated | analgesia, fail-flick latency test and tail-shock induced vocalization test (rat spinal cord): produced analgesia | cellular effects via protein kinase C (protein kinase C): regulation of protein kinase C
